Literature values in patent US20130040882A1, “USE OF FIBROBLAST GROWTH FACTOR FRAGMENTS” (NOVARTIS AG, priority 2003, published 2013).

System: somatostatin receptors
Conditions: cited from earlier work

In the case of “cyclo[4-(NH2—C2H4—NH—CO—O)Pro-Phg-DTrp-Lys-Tyr(4-Bzl)-Phe] [SOM230]”, the “Binding to somatostatin receptors” value is listed as “binds to all somatostatin receptors except SSTR4”.
